From patent US9951040B2, “1,3,5 -triazine based PI3K inhibitors as anticancer agents and a process for the preparation thereof” (Council of Scientific and Industrial Research, priority 2014, dated 2018)
Where two headings read alike, the source gives them in different places.

Columns and labels:
MCF-7 Cell line = experiment: MTT cell proliferation assay, MCF-7; format: cell-based; settings: Homo sapiens, MCF7, 120 h, 5 days
Experimental: (§1) Human breast cancer cell lines MDAMB231, MFC-7 and human prostate carcinoma cell line PC-3 were obtained from European Collection of Cell Cultures (ECACC). Cells were grown in […] medium supplemented with 10% fetal bovine serum (FBS), penicillin (100 units/ml), streptomycin (100 μg/ml), L-glutamine (0.3 mg/ml), sodium pyruvate ([…]), and NaHCO3 (2 mg/ml). Cells were grown in CO2 incubator (Thermocon Electron Corporation, USA) at 37° C. in an atmosphere of 95% air and 5% CO2 with 98% humidity. Different molecules were dissolved in DMSO and were delivered to cell cultures in complete medium.
(§2) MTT assay was done to determine the viability of the cells and was done as described previously (Kumar et al, 2013). Briefly, 6×10^3 were seeded in 96 well plates and were treated with different concentrations of different molecules for 5 days. 20 μl of MTT dye (2.5 mg/ml) was added 3 h before the termination of the experiment. Formazen crystals were dissolved in 150 μl of DMSO and OD was measured at 570 nm.

PC-3 Cell line = experiment: MTT cell proliferation assay, PC-3; format: cell-based; settings: Homo sapiens, PC-3, 120 h, 5 days
Experimental: as §1, §2

PI3K alpha = PI3K alpha (Homo sapiens, UniProt P42336); experiment: PI3K-α assay (ADP-Glo enzyme inhibition); format: biochemical; settings: at 500 nm
Experimental: Compounds were evaluated for their ability to inhibit class I PI3-kinase enzyme alpha as given below. PI3K-α Assay: PI3K alpha (diluted in 12.5 mM Glycine-NaOH (pH 8.5), 50 mM KCl, 2.5 mM MgCl2, 1 mM DTT, 0.05% CHAPS) is assayed in total volume of 20 ul containing 12.5 mM glycine-NaOH (pH 8.5), 50 mM KCl, 2.5 mM MgCl2, 1 mM DTT, 0.05% CHAPS, 0.01 mM ATP and 0.05 mM diC8 PIP2. The enzyme is assayed for 80 min after which 20 ul of ADP-Glo reagent is added. After a further incubation of 40 min, 40 ul of Kinase Detection Buffer is added. The assays are incubated for 40 min and then read on PerkinElmer Envision for 1 sec/well.

[1] = read-out: In vitro PI3K α % of inhibition
[2] = read-out: inhibition against PI3K alpha

Chain of PI3K alpha (P42336 whole entry, species assumed): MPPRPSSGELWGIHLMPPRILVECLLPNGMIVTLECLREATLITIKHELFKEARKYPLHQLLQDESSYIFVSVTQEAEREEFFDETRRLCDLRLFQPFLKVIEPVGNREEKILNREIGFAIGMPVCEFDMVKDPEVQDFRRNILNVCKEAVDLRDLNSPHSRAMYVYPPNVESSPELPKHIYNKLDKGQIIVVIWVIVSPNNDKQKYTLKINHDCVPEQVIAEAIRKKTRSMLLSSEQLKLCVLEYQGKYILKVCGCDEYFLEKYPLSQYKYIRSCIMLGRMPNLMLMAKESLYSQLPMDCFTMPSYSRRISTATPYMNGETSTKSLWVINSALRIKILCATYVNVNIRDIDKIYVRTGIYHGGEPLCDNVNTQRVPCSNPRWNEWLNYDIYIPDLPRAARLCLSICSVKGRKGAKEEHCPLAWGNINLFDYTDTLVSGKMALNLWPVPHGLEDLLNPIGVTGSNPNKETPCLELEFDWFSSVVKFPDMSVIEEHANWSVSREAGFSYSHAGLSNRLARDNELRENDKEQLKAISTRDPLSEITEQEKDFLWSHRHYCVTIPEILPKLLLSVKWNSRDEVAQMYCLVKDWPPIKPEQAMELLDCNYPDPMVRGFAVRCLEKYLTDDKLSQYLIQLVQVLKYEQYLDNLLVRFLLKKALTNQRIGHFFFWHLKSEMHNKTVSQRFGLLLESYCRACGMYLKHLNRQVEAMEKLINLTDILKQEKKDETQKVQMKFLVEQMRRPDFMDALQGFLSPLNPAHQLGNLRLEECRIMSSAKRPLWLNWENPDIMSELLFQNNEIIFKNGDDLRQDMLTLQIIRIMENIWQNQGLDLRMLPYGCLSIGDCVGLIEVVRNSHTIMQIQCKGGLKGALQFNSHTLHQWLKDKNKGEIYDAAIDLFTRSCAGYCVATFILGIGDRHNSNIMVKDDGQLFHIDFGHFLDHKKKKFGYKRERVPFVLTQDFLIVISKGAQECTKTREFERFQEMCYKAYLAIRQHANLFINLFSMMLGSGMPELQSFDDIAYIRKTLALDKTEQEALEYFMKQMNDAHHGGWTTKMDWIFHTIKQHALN
Chain of PI3K alpha (P27986 whole entry partner, species assumed): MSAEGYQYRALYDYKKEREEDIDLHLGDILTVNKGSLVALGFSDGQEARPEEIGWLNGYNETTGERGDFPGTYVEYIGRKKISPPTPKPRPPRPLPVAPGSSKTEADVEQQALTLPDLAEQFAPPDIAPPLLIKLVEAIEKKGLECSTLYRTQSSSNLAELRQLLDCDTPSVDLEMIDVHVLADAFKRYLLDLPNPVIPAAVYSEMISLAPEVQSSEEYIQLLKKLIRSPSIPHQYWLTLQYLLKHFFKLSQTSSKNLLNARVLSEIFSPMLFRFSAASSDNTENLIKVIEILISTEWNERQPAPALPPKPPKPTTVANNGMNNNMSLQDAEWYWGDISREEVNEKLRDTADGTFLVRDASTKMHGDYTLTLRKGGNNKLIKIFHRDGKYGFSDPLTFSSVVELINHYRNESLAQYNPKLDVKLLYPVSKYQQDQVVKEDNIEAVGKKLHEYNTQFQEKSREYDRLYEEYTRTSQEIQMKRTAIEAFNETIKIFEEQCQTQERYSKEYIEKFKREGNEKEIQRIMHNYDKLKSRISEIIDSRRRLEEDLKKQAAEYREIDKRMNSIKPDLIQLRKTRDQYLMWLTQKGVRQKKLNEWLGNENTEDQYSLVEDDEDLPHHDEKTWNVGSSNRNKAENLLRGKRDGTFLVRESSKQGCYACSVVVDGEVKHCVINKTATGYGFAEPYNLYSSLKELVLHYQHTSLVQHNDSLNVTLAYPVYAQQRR

SMILES | inhibition at 0.5 µM (PI3K alpha; [1]) [%] | inhibition at 0.5 µM (PI3K alpha; [2]) [%] | inhibition at 10 µM (MCF-7 Cell line) [%] | inhibition at 10 µM (PC-3 Cell line) [%]
FC(F)c1nc2ccccc2n1-c1nc(N2CCOCC2)nc(N2CCC(Oc3cccc(Cl)c3)CC2)n1 [1B6, 4-(4-(4-(3-chlorophenoxy)piperidin-1-yl)-6-(2-(difluoromethyl)-1H-benzo[d]imidazol-1-yl)-1,3,5-triazin-2-yl)morpholine] | 50 to 70 | – | > 50 | 30 to 50
Cc1ccc(NC2CCN(c3nc(N4CCOCC4)nc(-n4cnc5cc(F)ccc54)n3)CC2)cc1 [1B33, 1-(4-(5-fluoro-1H-benzo[d]imidazol-1-yl)-6-morpholino-1,3,5-triazin-2-yl)-N-(p-tolyl)piperidin-4-amine] | 50 to 70 | – | – | –
FC(F)(F)c1ccc(NC2CCN(c3nc(N4CCOCC4)nc(-n4cnc5ccccc54)n3)CC2)cc1 [1B35, 1-(4-(1H-benzo[d]imidazol-1-yl)-6-morpholino-1,3,5-triazin-2-yl)-N-(4-(trifluoromethyl)phenyl)piperidin-4-amine] | 50 to 70 | – | – | –
Fc1ccc(NC2CCN(c3nc(N4CCOCC4)nc(-n4cnc5ccccc54)n3)CC2)cc1 [1B37, 1-(4-(1H-benzo[d]imidazol-1-yl)-6-morpholino-1,3,5-triazin-2-yl)-N-(4-fluorophenyl)piperidin-4-amine] | > 70 | > 70 | – | –
Fc1ccccc1NC1CCN(c2nc(N3CCOCC3)nc(-n3cnc4ccccc43)n2)CC1 [1B38, 1-(4-(1H-benzo[d]imidazol-1-yl)-6-morpholino-1,3,5-triazin-2-yl)-N-(2-fluorophenyl)piperidin-4-amine] | 50 to 70 | – | – | –
Clc1ccccc1NC1CCN(c2nc(N3CCOCC3)nc(-n3cnc4ccccc43)n2)CC1 [1B39, 1-(4-(1H-benzo[d]imidazol-1-yl)-6-morpholino-1,3,5-triazin-2-yl)-N-(2-chlorophenyl)piperidin-4-amine] | 50 to 70 | – | – | –
FC(F)(F)c1ccccc1NC1CCN(c2nc(N3CCOCC3)nc(-n3cnc4ccccc43)n2)CC1 [1B40, 1-(4-(1H-benzo[d]imidazol-1-yl)-6-morpholino-1,3,5-triazin-2-yl)-N-(2-(trifluoromethyl)phenyl)piperidin-4-amine] | 50 to 70 | – | – | –
Fc1ccc(N(c2ccc(F)cc2)C2CCN(c3nc(N4CCOCC4)nc(-n4c(C(F)F)nc5ccccc54)n3)CC2)cc1 [1B41, 1-(4-(2-(difluoromethyl)-1H-benzo[d]imidazol-1-yl)-6-morpholino-1,3,5-triazin-2-yl)-N,N-bis(4-fluorophenyl)piperidin-4-amine] | > 70 | > 70 | – | –
Fc1ccc(N(c2ccc(Br)cc2)C2CCN(c3nc(N4CCOCC4)nc(-n4c(C(F)F)nc5ccccc54)n3)CC2)cc1 [1B42, N-(4-bromophenyl)-1-(4-(2-(difluoromethyl)-1H-benzo[d]imidazol-1-yl)-6-morpholino-1,3,5-triazin-2-yl)-N-(4-fluorophenyl)piperidin-4-amine] | > 70 | > 70 | – | –
Fc1ccc(N(c2ccc(C(F)(F)F)cc2)C2CCN(c3nc(N4CCOCC4)nc(-n4c(C(F)F)nc5ccccc54)n3)CC2)cc1 [1B43, 1-(4-(2-(difluoromethyl)-1H-benzo[d]imidazol-1-yl)-6-morpholino-1,3,5-triazin-2-yl)-N-(4-fluorophenyl)-N-(4-(trifluoromethyl)phenyl)piperidin-4-amine] | > 70 | > 70 | – | –
Fc1ccc(N(c2ccc(Cl)cc2)C2CCN(c3nc(N4CCOCC4)nc(-n4c(C(F)F)nc5ccccc54)n3)CC2)cc1 [1B44, N-(4-chlorophenyl)-1-(4-(2-(difluoromethyl)-1H-benzo[d]imidazol-1-yl)-6-morpholino-1,3,5-triazin-2-yl)-N-(4-fluorophenyl)piperidin-4-amine] | 50 to 70 | – | – | –
Fc1ccc(N(c2ccncc2C(F)(F)F)C2CCN(c3nc(N4CCOCC4)nc(-n4c(C(F)F)nc5ccccc54)n3)CC2)cc1 [1B45, N-(1-(4-(2-(difluoromethyl)-1H-benzo[d]imidazol-1-yl)-6-morpholino-1,3,5-triazin-2-yl)piperidin-4-yl)-N-(4-fluorophenyl)-3-(trifluoromethyl)pyridin-4-amine] | 50 to 70 | – | – | –
FC(F)c1cc2ccccc2n1-c1nc(N2CCOCC2)nc(N2CCC(Nc3ccc(Cl)cc3)CC2)n1 [1B50, N-(4-chlorophenyl)-1-(4-(2-(difluoromethyl)-1H-indol-1-yl)-6-morpholino-1,3,5-triazin-2-yl)piperidin-4-amine] | 50 to 70 | – | – | –

Now from value to compound, other results behind:

inhibition at 0.5 µM (PI3K alpha; [1]) [%] | inhibition at 0.5 µM (PI3K alpha; [2]) [%] | SMILES | inhibition at 10 µM (MCF-7 Cell line) [%] | inhibition at 10 µM (PC-3 Cell line) [%]
50 to 70 | – | Fc1ccc(NC2CCN(c3nc(N4CCOCC4)nc(-n4c(C(F)F)nc5ccccc54)n3)CC2)cc1 [1B21, 1-(4-(2-(difluoromethyl)-1H-benzo[d]imidazol-1-yl)-6-morpholino-1,3,5-triazin-2-yl)-N-(4-fluorophenyl)piperidin-4-amine] | – | –
50 to 70 | – | FC(F)c1nc2ccccc2n1-c1nc(N2CCOCC2)nc(N2CCC(Nc3ccc(C(F)(F)F)cc3)CC2)n1 [1B22, 1-(4-(2-(difluoromethyl)-1H-benzo[d]imidazol-1-yl)-6-morpholino-1,3,5-triazin-2-yl)-N-(4-(trifluoromethyl)phenyl)piperidin-4-amine] | 30 to 50 | 30 to 50
> 70 | > 70 | FC(F)c1nc2ccccc2n1-c1nc(N2CCOCC2)nc(N2CCC(Nc3ccc(OC(F)(F)F)cc3)CC2)n1 [1B23, 1-(4-(2-(difluoromethyl)-1H-benzo[d]imidazol-1-yl)-6-morpholino-1,3,5-triazin-2-yl)-N-(4-(trifluoromethoxy)phenyl)piperidin-4-amine] | 30 to 50 | 30 to 50
> 70 | > 70 | FC(F)c1nc2ccccc2n1-c1nc(N2CCOCC2)nc(N2CCC(Nc3ccc(Br)cc3)CC2)n1 [1B25, N-(4-bromophenyl)-1-(4-(2-(difluoromethyl)-1H-benzo[d]imidazol-1-yl)-6-morpholino-1,3,5-triazin-2-yl)piperidin-4-amine] | > 50 | 30 to 50
> 70 | > 70 | COc1ccccc1NC1CCN(c2nc(N3CCOCC3)nc(-n3c(C(F)F)nc4ccccc43)n2)CC1 [1B28, 1-(4-(2-(difluoromethyl)-1H-benzo[d]imidazol-1-yl)-6-morpholino-1,3,5-triazin-2-yl)-N-(2-methoxyphenyl)piperidin-4-amine] | > 50 | 30 to 50
50 to 70 | – | FC(F)c1nc2ccccc2n1-c1nc(N2CCOCC2)nc(N2CCC(Nc3ccccc3C(F)(F)F)CC2)n1 [1B29, 1-(4-(2-(difluoromethyl)-1H-benzo[d]imidazol-1-yl)-6-morpholino-1,3,5-triazin-2-yl)-N-(2-(trifluoromethyl)phenyl)piperidin-4-amine] | – | –
> 70 | > 70 | COc1cccc(NC2CCN(c3nc(N4CCOCC4)nc(-n4c(C(F)F)nc5ccccc54)n3)CC2)c1 [1B31, 1-(4-(2-(difluoromethyl)-1H-benzo[d]imidazol-1-yl)-6-morpholino-1,3,5-triazin-2-yl)-N-(3-methoxyphenyl)piperidin-4-amine] | – | –
50 to 70 | – | FC(F)(F)Oc1ccc(NC2CCN(c3nc(N4CCOCC4)nc(-n4cnc5ccccc54)n3)CC2)cc1 [1B36, 1-(4-(1H-benzo[d]imidazol-1-yl)-6-morpholino-1,3,5-triazin-2-yl)-N-(4-(trifluoromethoxy)phenyl)piperidin-4-amine] | – | –
50 to 70 | – | Fc1ccc(NC2CCN(c3nc(N4CCOCC4)nc(-n4c(C(F)F)cc5ccccc54)n3)CC2)cc1 [1B46, 1-(4-(2-(difluoromethyl)-1H-indol-1-yl)-6-morpholino-1,3,5-triazin-2-yl)-N-(4-fluorophenyl)piperidin-4-amine] | – | –
> 70 | > 70 | COc1ccc(NC2CCN(c3nc(N4CCOCC4)nc(-n4c(C(F)F)cc5ccccc54)n3)CC2)cc1 [1B47, 1-(4-(2-(difluoromethyl)-1H-indol-1-yl)-6-morpholino-1,3,5-triazin-2-yl)-N-(4-methoxyphenyl)piperidin-4-amine] | – | –
50 to 70 | – | FC(F)c1cc2ccccc2n1-c1nc(N2CCOCC2)nc(N2CCC(Nc3ccc(OC(F)(F)F)cc3)CC2)n1 [1B48, 1-(4-(2-(difluoromethyl)-1H-indol-1-yl)-6-morpholino-1,3,5-triazin-2-yl)-N-(4-(trifluoromethoxy)phenyl)piperidin-4-amine] | – | –
> 70 | > 70 | FC(F)c1cc2ccccc2n1-c1nc(N2CCOCC2)nc(N2CCC(Nc3ccc(C(F)(F)F)cc3)CC2)n1 [1B49, 1-(4-(2-(difluoromethyl)-1H-indol-1-yl)-6-morpholino-1,3,5-triazin-2-yl)-N-(4-(trifluoromethyl)phenyl)piperidin-4-amine] | – | –
